According to patent US20140329854A1, “NOVEL HETEROCYCLIC COMPOUNDS USEFUL IN SIRTUIN BINDING AND MODULATION” (SMB Innovation, priority 2011, published 2014):
Read-outs that look alike come from different tables or passages of the source. One block for each molecule: values may come before it.

Tests used:
[1] = Solubility in DMSO stock solution; conditions: solubility in DMSO before further dilution with water to 1% DMSO
[2] = biological target: T1, SIRT1 (Homo sapiens, UniProt Q96EB6); assay: CISBIO HTRF SIRT1 assay of SIRT1 peptide deacetylation, modified by excluding NAD+; assay type: biochemical; conditions: for Modulation of SIRT1 deacetylating activity (in words): dose response, FIGS. 1-5
T1 construct: purchased Cisbio Bioassays
T1 sequence (Q96EB6 1-747): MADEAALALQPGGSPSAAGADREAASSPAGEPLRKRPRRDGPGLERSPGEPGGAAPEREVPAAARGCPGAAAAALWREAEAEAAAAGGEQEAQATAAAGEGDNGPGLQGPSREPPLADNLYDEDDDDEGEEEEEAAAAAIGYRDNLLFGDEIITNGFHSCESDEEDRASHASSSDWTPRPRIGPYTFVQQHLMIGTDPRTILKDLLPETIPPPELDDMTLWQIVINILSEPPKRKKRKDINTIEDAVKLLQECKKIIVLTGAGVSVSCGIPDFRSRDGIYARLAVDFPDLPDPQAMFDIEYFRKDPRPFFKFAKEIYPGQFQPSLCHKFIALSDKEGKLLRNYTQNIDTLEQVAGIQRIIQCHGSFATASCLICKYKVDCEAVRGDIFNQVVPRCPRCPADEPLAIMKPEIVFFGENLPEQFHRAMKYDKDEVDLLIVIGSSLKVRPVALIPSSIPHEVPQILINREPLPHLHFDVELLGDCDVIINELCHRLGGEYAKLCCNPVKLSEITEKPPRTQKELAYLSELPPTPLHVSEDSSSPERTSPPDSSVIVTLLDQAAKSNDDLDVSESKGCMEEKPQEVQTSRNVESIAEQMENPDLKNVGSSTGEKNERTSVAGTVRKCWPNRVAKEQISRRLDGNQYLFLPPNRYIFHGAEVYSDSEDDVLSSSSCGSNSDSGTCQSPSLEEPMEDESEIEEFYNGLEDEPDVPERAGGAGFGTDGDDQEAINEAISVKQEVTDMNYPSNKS
Method: Generally, the CISBIO HTRF® fluorescence enzyme titration assay (Cisbio Bioassays, Cisbio, 135 South Road, Bedford, Mass. 01730, USA) has provided information on inhibition and/or activation of SIRT1 deacetylation of a substrate peptide d2 containing a single acetylated lysine residue and a fluorescence probe/quencher. IC50 and AC50 values have been obtained. The assay was performed in microtiter wells and involved an enzymatic step, wherein 2 μL of the substrate peptide (6 nM) is incubated with 2 μL of SIRT1 enzyme (2.5 ng) and 2 μL of compound solution in DMSO and water. Reaction with anti-acetyl cryptate produces a FRET signal giving maximum signal when no SIRT1 reaction can be detected. The detection step involves quantification of the deacetylation process using an anti-acetyl MAb labeled with Eu^3+ cryptate. The assay was modified by excluding the NAD+ cofactor and using nicotinamide as inhibition control and the compound SRT1720 as activation control. SRT 1720 is described as a SIRT1 activating compound in Pillarisetti, S. (2008).
Protocol for inhibition/activation assay:
After adding all enzymatic step ingredients the mixture is incubated at room temperature at 30 to 60 min. Then the detection reactant is added and incubated at room temperature for 5 hours and on to produce a signal. The fluorescence readout is given as percentage of signal produced with no enzyme reaction.
The cryptate is excited at 337 nm and the fluorescence is measured at 590 nm (cryptate emission wavelength) and 665 nm (d2 emission wavelength). A ratio is calculated (665/590 nm) for each well.
The figures show percentage fluorescence as a function of Log C (log of compound concentration in μM).

[3] = tested on: rat hepatocytes; assay: Metabolic stability in rat hepatocytes; assay type: in vitro ADME; conditions: for % Qh (rat): CLh as % of hepatic blood flow; for % Qh (rat) / rat CLh: rat Qh = 55 mL/min/kg; for rat CLh: hepatic clearance from CLint by well-stirred equation; for rat CLint: rat hepatocytes, hepatic intrinsic clearance
Method: (§1) Stability of the six compounds in the presence of a drug metabolizing system such as human and rat hepatocytes was measured. Data were reported from the CRO in the format of hepatic intrinsic clearance (CLint) in mL/min/kg. These CLint data were converted using the well-stirred equation
(§2) to a whole body clearance (CLh, hepatic clearance), which is more directly physiologically interpreted (Qh, hepatic blood flow rate, mL/min/kg).

[4] = tested on: human hepatocytes; assay: Metabolic stability in human hepatocytes; assay type: in vitro ADME; conditions: for % Qh (human): CLh as % of hepatic blood flow; for % Qh (human) / hu CLh: human Qh = 21 mL/min/kg; for hu CLh: hepatic clearance from CLint by well-stirred equation; for hu CLint: human hepatocytes, hepatic intrinsic clearance
Method: as §1, §2

[5] = tested on: CYP1A2, 2C9, 2C19, 2D6, and 3A4; conditions: microsomes
[6] = tested on: MDCK-MDR1 cells
Source text: MDR1 is the nomenclature for the major efflux transporter P-glycoprotein (P-gp), which is expressed at important anatomical barriers such as blood-brain, small intestine, and tumor cells. The MDCK-MDR model is a polarized cell model over expressing P-gp (i.e. P-gp is expressed on the Apical, or gut lumen, side of the cell) that is capable of actively effluxing small molecule substrates in the B to A direction. […] The compounds were run bidirectionally (Compound added to apical side and flux measured of compound appearing on the basolateral, or blood, side; compound added on basolateral side and flux of compound to apical side measured).

[7] = Measured partition coefficients (MlogD7.4, logP11); assay type: physicochemical; conditions: measured partition coefficient at pH 7.4
Method: Physical properties tPSA and ClogP (calculated lipophilicity octanol/water) were calculated using ChemDraw. Additionally, M log D7.4 (measured partition coefficient at pH 7.4) and log P11 (measured partition coefficient at pH 11) were measured, and all data are shown in Table 7.

[8] = tested on: human and rat hepatocytes; assay: Stability in cryopreserved hepatocytes (FIG. 7), verbal summary; assay type: in vitro ADME; conditions: 90 minutes
Method: as §1

[9] = tested on: CYP1A2, CYP2C9, CYP2C19, CYP2D6, CYP3A4; assay: CYP inhibition in human liver microsomes
[10] = SIRT1 activation, no NAD+ cofactor, average n = 3, read-out: AC50 in μM, average, n = 3
[11] = SIRT1 activation, no NAD+ cofactor, single experiment of FIGS. 1-4, read-out: AC50 in μM, n = 1
[12] = average AC50 values, n = 6, read-out: AC50

- Concentration of compound in DMSO stock solution [1]: 200000 µM
- AC50 [2, 10]: 348 µM
- AC50 [2, 11]: 316 µM
- Modulation of SIRT1 deacetylating activity (in words) [2]: clear activation
SMILES: NC(=O)c1ccc(C(=O)Nc2ccccc2O)nc1 [Compound 2, 2-N(2-hydroxyphenyl)pyridine-2,5-dicarboxamide]

- Concentration of compound in DMSO stock solution [1]: 20000 µM
SMILES: NC(=O)c1ccc(C(=O)Nc2ccc(O)c3ccccc23)nc1 [Compound 4, 2-N(4-hydroxy-1-naphthyl)pyridine-2,5-dicarboxamide]

- Concentration of compound in DMSO stock solution [1]: 20000 µM
SMILES: NC(=O)c1ccc(C(=O)Nc2cccc3c(O)cccc23)nc1 [Compound 5, 2-N(5-hydroxy-1-naphthyl)pyridine-2,5-dicarboxamide]

- Concentration of compound in DMSO stock solution [1]: 100000 µM
SMILES: NC(=O)c1ccc(C(=O)Nc2cccc3cc(O)ccc23)nc1 [Compound 6, 2-N(6-hydroxy-1-naphthyl)pyridine-2,5-dicarboxamide]

- % Qh (rat) [3]: 66.0%
- rat CLh [3]: 36.3 mL/min/kg
- rat CLint [3]: 107 mL/min/kg
- % Qh (human) [4]: 82.5%
- hu CLh [4]: 17.3 mL/min/kg
- hu CLint [4]: 99 mL/min/kg
SMILES: CCOc1ccc2ccc(=O)oc2c1 [Compound 7EC, reference compound]

- % Qh (rat) [3]: 21.4%
- rat CLh [3]: 11.8 mL/min/kg
- rat CLint [3]: 15 mL/min/kg
- Concentration of compound in DMSO stock solution [1]: 200000 µM
- IC50 [5]: > 5 µM
- % Qh (human) [4]: 36.4%
- hu CLh [4]: 7.6 mL/min/kg
- hu CLint [4]: 12 mL/min/kg
- Cell permeability (in words) [6]: moderate cell permeability
- P-gp mediated efflux (in words) [6]: no P-gp mediated efflux
- MlogD7.4 [7]: 0.3
- Clearance in hepatocytes (in words) [8]: relatively low clearance
- Stability in hepatocytes (in words) [8]: good stability
- AC50 [2, 11]: 112 µM
- Modulation of SIRT1 deacetylating activity (in words) [2]: clear activation
SMILES: NC(=O)c1ccc(C(=O)Nc2ccc(O)cc2O)cn1 [Compound 9, 5-N(2,4-dihydroxyphenyl)pyridine-2,5-dicarboxamide]

- Concentration of compound in DMSO stock solution [1]: 20000 µM
SMILES: NC(=O)c1ccc(C(=O)Nc2cccc3c(O)cccc23)cn1 [Compound 10, 5-N(5-hydroxy-1-naphthyl)pyridine-2,5-dicarboxamide]

- % Qh (rat) [3]: 70.7%
- rat CLh [3]: 38.9 mL/min/kg
- rat CLint [3]: 133 mL/min/kg
- Concentration of compound in DMSO stock solution [1]: 20000 µM
- IC50 [5]: > 5 µM
- % Qh (human) [4]: 60.4%
- hu CLh [4]: 12.7 mL/min/kg
- hu CLint [4]: 32 mL/min/kg
- Cell permeability (in words) [6]: moderate cell permeability
- P-gp mediated efflux (in words) [6]: no P-gp mediated efflux
- MlogD7.4 [7]: 1.6
- Clearance in hepatocytes (in words) [8]: relatively low clearance
- Stability in hepatocytes (in words) [8]: good stability
- AC50 [2, 10]: 114 µM
- AC50 [2, 11]: 3.3 µM
- Modulation of SIRT1 deacetylating activity (in words) [2]: clear activation
SMILES: NC(=O)c1ccc(C(=O)Nc2ccc(O)c3ccccc23)cn1 [Compound 11, 5-N(4-hydroxy-1-naphthyl)pyridine-2,5-dicarboxamide]

- Concentration of compound in DMSO stock solution [1]: 20000 µM
SMILES: NC(=O)c1ccc(C(=O)Nc2cccc3cc(O)ccc23)cn1 [Compound 12, 5-N(6-hydroxy-1-naphthyl)pyridine-2,5-dicarboxamide]

- Concentration of compound in DMSO stock solution [1]: 20000 µM
- AC50 [2, 10]: 647 µM
- AC50 [2, 11]: 105 µM
- Modulation of SIRT1 deacetylating activity (in words) [2]: clear activation
SMILES: NC(=O)c1cccc(C(=O)Nc2ccc(O)cc2O)n1 [Compound 13, 2-N(2,4-dihydroxyphenyl)pyridine-2,6-dicarboxamide]

- Concentration of compound in DMSO stock solution [1]: 200000 µM
SMILES: NC(=O)c1ccc2cc(C(=O)Nc3ccc(O)cc3)ccc2n1 [Compound 14, 6-N(4-hydroxyphenyl)quinolin-2,6-dicarboxamide]

- Concentration of compound in DMSO stock solution [1]: 10000 µM
SMILES: NC(=O)c1ccc2cc(C(=O)Nc3ccccc3O)ccc2n1 [Compound 15, 6-N(2-hydroxyphenyl)quinolin-2,6-dicarboxamide]

- Concentration of compound in DMSO stock solution [1]: 200000 µM
SMILES: NC(=O)c1cc(C(=O)Nc2ccc(O)cc2)c[nH]1 [Compound 16, 4-N(4-hydroxyphenyl)pyrrol-2,4-dicarboxamide]

- Concentration of compound in DMSO stock solution [1]: 200000 µM
- IC50 ([2]; SIRT1 inhibition, no NAD+ cofactor, n = 1, FIG. 5): 0.5 µM
- Modulation of SIRT1 deacetylating activity (in words) [2]: clear inhibition
SMILES: NC(=O)c1cc(C(=O)Nc2ccccc2O)c[nH]1 [Compound 17, 4-N(2-hydroxyphenyl)pyrrol-2,4-dicarboxamide]

- AC50 [2, 12]: 116 µM
SMILES: NC(=O)c1ccc(C(=O)Nc2cc3ccccc3cc2O)nc1 [Compound 18, 2-N(3-hydroxy-2-naphthyl)pyridine-2,5-dicarboxamide]

- IC50 [9]: > 5 µM
- AC50 [2, 12]: 31.6 µM
SMILES: NC(=O)c1ccc(C(=O)Nc2ccc3ccccc3c2O)nc1 [Compound 19, 2-N(1-hydroxy-2-naphthyl)pyridine-2,5-dicarboxamide]

- AC50 [2, 12]: > 200 µM
SMILES: NC(=O)c1ccc(C(=O)Nc2cc(Cl)ccc2O)nc1 [Compound 23, 2-N(2-hydroxy-5-chloro-phenyl)pyridine-2,5-dicarboxamide]

- IC50 [5]: > 5 µM
SMILES: COc1cccc(NC(=O)c2ccc(C(N)=O)cn2)c1O [Compound 24, 2-N(2-hydroxy-3-methoxy-phenyl)pyridine-2,5-dicarboxamide]

- AC50 [2, 12]: 175 µM
SMILES: COc1cc2ccccc2c(NC(=O)c2ccc(C(N)=O)cn2)c1O [Compound 28, 2-N(2-hydroxy-3-methoxy-1-naphthyl)pyridine-2,5-dicarboxamide]

- IC50 [9]: > 5 µM
- AC50 [2, 12]: 113 µM
SMILES: NC(=O)c1ccc(C(=O)Nc2c(O)ccc3cc(Cl)ccc23)nc1 [Compound 29, 2-N(2-hydroxy-6-chloro-1-naphthyl)pyridine-2,5-dicarboxamide]
